Measurements taken from ChEMBL document CHEMBL1149668, “Synthesis and cytotoxicity of desmethoxycallipeltin B: lack of a quinone methide for the cytotoxicity of callipeltin B” (Bioorg Med Chem Lett, 2007).

Tested on: HeLa
Assay: Cytotoxicity against HeLa cells by MTT […] assay
Type: functional, cell-based
Settings: Homo sapiens

Row | SMILES | IC50
1 | CO[C@H](c1ccc(O)cc1)[C@H]1NC(=O)[C@H](CCC(N)=O)N(C)C(=O)[C@H](CC(C)C)NC(=O)[C@@H](CCCNC(=N)N)NC(=O)[C@@H]([C@@H](C)O)NC(=O)[C@H](NC(=O)[C@H]2NC(=O)[C@H](C)[C@@H]2C)[C@@H](C)OC(=O)[C@H](C)N(C)C1=O [CALLIPELTIN B] | 98 µM
2 | CC(C)C[C@@H]1NC(=O)[C@@H](CCCNC(=N)N)NC(=O)[C@@H]([C@@H](C)O)NC(=O)[C@H](NC(=O)[C@H]2NC(=O)[C@H](C)[C@@H]2C)[C@@H](C)OC(=O)[C@H](C)N(C)C(=O)[C@@H](Cc2ccc(O)cc2)NC(=O)[C@H](CCC(N)=O)N(C)C1=O [DESMETHOXYCALLIPELTIN B] | 128 µM
